From the METLIN SMRT retention time set (Domingo-Almenara et al. 2019)

Experiment: gradient 5% acetonitrile 3 min, to 50% in 2 min, to 85% in 15 min, held 3 min, 100 µL/min
Conditions: column: Zorbax Extend-C18 2.1 x 50 mm; eluents: water / acetonitrile, 0.1% formic acid
Method in brief: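 A Zorbax Extend-C18 column (2.1 × 50 mm, 1.8 μm) run at 100 μL/min with water and acetonitrile, both containing 0.1% formic acid, separated mixtures of ~100 pure standards. The HPLC was coupled to a quadrupole time-of-flight mass spectrometer operated in positive and negative ionization mode, with dead and dwell volumes of 40 μL and 900 μL. Each retention time was taken from a computationally picked adduct peak that was then manually inspected.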

Structure (SMILES) | RP-LC retention time
CN1CCC(NC(=O)c2n[nH]c3c2CN(C(=O)c2ccccc2Br)CC3)CC1 | 595 s
Cc1ccc(-c2nc(C3CC(=O)N(c4ccc(C)cc4)C3)no2)cc1 (stereo unspecified) | 1080 s
O=S(=O)(Cc1noc(-c2ccc(F)cc2F)n1)c1ccc(Cl)cc1 | 1160 s
CCc1cccc(NC(=O)Nc2cccc(-c3ccc(N4CCOCC4)nn3)c2)c1 | 770 s
CN(Cc1ccccc1)C(=O)c1ccc(-c2cccs2)nc1 | 920 s
CCNC(=O)C1(CCO)CCN(c2ncccn2)C1 (stereo unspecified) | 539 s
O=C(Cc1ccsc1)N1CCc2cc(-c3csc(C4CC4)n3)ccc21 | 1120 s
O=C(c1cnn2c(-c3ccc4c(c3)OCO4)ccnc12)N1CCN(Cc2ccc3c(c2)OCO3)CC1 | 648 s
COCCNC(=O)C1Cn2cccc2C(=O)N1C (stereo unspecified) | 570 s
COc1ccc(N2CCN(C(=O)CCC(=O)N3CCCn4nc(C)cc43)CC2)cc1 | 606 s
O=C(C1=CN(c2cccc(Cl)c2)c2ccccc2S1(=O)=O)N1CCCC1 | 814 s
O=C(NCC1CCCO1)c1cc2cccnc2n(Cc2ccccc2F)c1=O (stereo unspecified) | 932 s
COC(=O)c1ccc(CSc2nnc(NC(=O)C3(c4cccs4)CCCC3)s2)o1 | 978 s
CCn1c(=O)c(C)nc2cc(-c3noc(-c4sccc4C)n3)ccc21 | 1080 s
O=C(CNC(=O)c1c[nH]c2ccccc12)NCCC1=CCCCC1 | 710 s
Cc1nn2c(C)c(C(=O)OC(C)C)nnc2c1-c1ccc(F)cc1 | 1060 s
CC(=O)Nc1ccc(C(=O)N2CCC3(CC2)N=C(c2ccccc2)NO3)cc1 | 664 s
COc1ccccc1-c1nc(Cn2nnc(-c3nc(-c4cccc(OC)c4OC)no3)c2C)c(C)o1 | 1050 s
O=C(Nc1nnc(Cc2cccs2)o1)c1cc2cc([N+](=O)[O-])ccc2s1 | 858 s
CCOc1cc(CN2CCCC2c2cc(C)no2)ccc1OCC(N)=O (stereo unspecified) | 580 s
Cc1nc([C@@H]2CN(C(=O)c3sc(C)nc3C)C[C@H]2C(N)=O)n[nH]1 | 550 s

Structure (SMILES) | RP-LC retention time
Cc1nn(C(C)C(=O)NCCN2CCOCC2)c(=O)c2nn(-c3ccccc3)c(C)c12 (stereo unspecified) | 615 s
CCCc1sc(NCc2cccc(OC)c2O)nc1-c1cc(C)ccc1C | 911 s
CCCn1cnc2cc(CNC(=O)Cc3cccc(Cl)c3)ccc21 | 670 s
COc1cccc(-c2nc3cnccn3c2NCCC(=O)NC2CCCC2)c1 | 675 s
CCC(C)NC(=O)C1CCN(c2cnn(Cc3ccccc3)c(=O)c2)CC1 (stereo unspecified) | 721 s
Cc1ccc(NC(=O)C2(C)Oc3cccnc3NC2=O)cc1C (stereo unspecified) | 760 s
Cc1noc(C2CN(C(=O)c3n[nH]c4ccccc34)CC23CCOCC3)n1 (stereo unspecified) | 665 s
c1ccc(-c2nc(-c3cccc(-c4ccn[nH]4)c3)no2)cc1 | 966 s
Cc1ccc2c(c1)N(S(C)(=O)=O)CCC(C(=O)NCc1ccccc1)O2 (stereo unspecified) | 875 s
CC(C)CN1CCn2cc(C(=O)N3CCN(c4ccc(F)cc4)CC3)nc2C1 | 613 s
CCCN1C(=O)C2CCC(=O)N2c2ccc(C(=O)NCCCN3CCOCC3)cc21 (stereo unspecified) | 570 s
CCOC(=O)c1noc2ncnc(N3CCC(c4ccccc4)C3)c12 (stereo unspecified) | 1030 s
O=C(c1ccc2c(=O)n(-c3ccccc3)c(N3CCCCC3)nc2c1)N1CCN(c2ccccn2)CC1 | 669 s
COc1ccc(S(=O)(=O)N2CCN(c3ccccn3)CC2)cc1OC | 588 s
Cc1ccc(NC(=O)NC2CCN(c3ccc(F)c(C)c3)C2=O)c(C)c1 (stereo unspecified) | 874 s
c1ccc(-c2nc(CSc3ccc(-n4ccnc4)nn3)cs2)cc1 | 636 s
O=C(NCCSCc1ccco1)c1cc(-c2cccnc2)nc2ccccc12 | 738 s
Cc1ccc(-c2nc(-c3ccc(-c4noc(CNC(=O)c5ccccc5)n4)cc3)cs2)s1 | 1250 s
COc1ccc(CN2CCc3nc(N4CCN(c5ncccn5)CC4)ncc3C2)c(OC)c1 | 664 s
CCOc1cccc(-c2noc(-c3nn(-c4ccccc4)ccc3=O)n2)c1 | 942 s
COc1ccc(NC(=O)N2CC(N(C(=O)NC(C)C)C3CCOCC3)C2)cc1OC | 598 s

Structure (SMILES) | RP-LC retention time
N#Cc1ccsc1NC(=O)c1ccc2ncsc2c1 | 725 s
Fc1cccc(Cn2cc(-c3noc(-c4ccc5c(c4)OCO5)n3)nn2)c1 | 962 s
COc1ccc(-c2ccc(C(=O)N3CCCc4ccccc43)o2)c([N+](=O)[O-])c1 | 976 s
O=C(c1cc(Cl)ccc1Cl)N1CCN(CC(O)c2cccs2)CC1 (stereo unspecified) | 581 s
O=C(CN1C(=O)CCCc2cc(S(=O)(=O)N3CCOCC3)ccc21)N1CCc2ccccc2C1 | 786 s
CC(C)c1nc(N2CCN(c3ccccc3)CC2)ncc1C(=O)O | 868 s
O=C1CC(Nc2ccc(N3CCCCC3)cc2)C(=O)N1c1ccccc1F (stereo unspecified) | 571 s
CCOc1ccc(NS(=O)(=O)c2cc(C(=O)N3CCN(c4cccc(C)c4)C(C)C3)n[nH]2)cc1 (stereo unspecified) | 899 s
N#CC1(C(=O)NCCOc2ccc(F)cc2)CC1 | 728 s
CC1CCCN(c2ccc(-c3noc(CN4CCC5(CC4)OCCO5)n3)cn2)C1 (stereo unspecified) | 680 s
Cc1sc2ccn(CC(C)C)c(=O)c2c1C(=O)O | 863 s
CC1(C)C(=O)N(CC(=O)Nc2ccc(F)cc2)c2ccccc21 | 866 s
CSc1ccc(NC(=O)c2c(C)sc3ncnc(N4CCCC(C)C4)c23)cc1 (stereo unspecified) | 1250 s
CC1CCN(CCNC(=O)c2nc(CCS(=O)(=O)c3ccc(F)cc3)no2)CC1 | 620 s
CC(C)S(=O)(=O)N1CCOc2ccc(NC(=O)C3CC3)cc2C1 | 757 s
CC(C)(C)c1cc(C(C)(C)C)c2c(c1)C(O)(C(F)(F)F)C(=O)O2 (stereo unspecified) | 1250 s
COc1ccc(OC)c(NC(=O)CN2C(=O)CC(c3ccccc3)=Nc3ccccc32)c1 | 982 s
CCCCNC(=O)CN1C(=O)C2CCCCN2c2ccc(S(=O)(=O)N3CCCC3)cc21 (stereo unspecified) | 873 s
CC1CCN(S(=O)(=O)c2nn(Cc3ccccc3)cc2C(=O)O)CC1 | 882 s

Further lines, results first:

RP-LC retention time | Structure (SMILES)
830 s | CCn1ccc2c(cc(C(=O)Nc3ccc(C)c(F)c3)n2C)c1=O
696 s | CCOC(=O)C(C)NC(=O)NCC(=O)N1CCc2ccccc21 (stereo unspecified)
804 s | Cc1ccc(S(=O)(=O)N2CC3CN(C(=O)c4ccc5c(c4)OCO5)CC(C2)O3)cc1
908 s | COc1ccc(-n2ccc(=O)c(-c3nc(-c4ccccc4Br)no3)n2)cc1
661 s | O=C(NCCn1nnc2cc(C(=O)N3CCCCC3)ccc21)NC1CCCC1
722 s | CCC(=O)N1CCc2cc(N3CC(C(=O)NCc4ccccc4F)CC3=O)ccc21 (stereo unspecified)
588 s | CCN1CCCC1CNC(=O)CCc1cc2cc(C)ccc2[nH]c1=O (stereo unspecified)
740 s | CCCS(=O)(=O)N1CCC[C@H]1c1nc(-c2ccc(F)cc2)n[nH]1
759 s | CC(C)c1nnc(-c2cccnc2N2CCN(C(=O)c3ccc4c(c3)OCO4)CC2)o1
943 s | CCc1ccc(S(=O)(=O)NCc2c(-c3ccccc3)nc3sc(C)nn23)cc1
541 s | COc1cc(CN2CCC3(CC2)CC(O)CCO3)ccc1F (stereo unspecified)
565 s | Cc1oc2ncn(CC(=O)N3CCN(c4ccccn4)CC3)c(=O)c2c1C
1050 s | COc1ccc(-c2noc(CN3C(=O)COc4ccc(Cl)cc43)n2)cc1
871 s | Cc1nnc2ccc(-c3noc(Cc4cccc(Cl)c4)n3)cn12
619 s | Cc1oc(C2CCN(C(=O)Cn3cnc4c3c(=O)n(C)c(=O)n4C)CC2)nc1C(=O)N1CCCC1
1110 s | O=C1COc2ccccc2N1Cc1nc(-c2ccc(Br)cc2)no1
595 s | O=C(Nc1ccc(N2CCCN(C(=O)C3CC3)CC2)cc1)c1ccc(=O)[nH]c1
1020 s | CC(C)CNC(=O)c1cn(-c2ccc(-c3nc(C(C)(C)C)no3)cn2)cn1
622 s | O=C(Cn1ncn2nc(-c3cccs3)cc2c1=O)N1CCN(c2ccccn2)CC1
715 s | Cc1ccc(Nc2nc(C)cc(N3CCN(C(=O)c4ccc(Br)o4)CC3)n2)cc1
597 s | CCC(CC)C(=O)N1CCN(c2nc(CN3CCOCC3)cs2)CC1
712 s | CNC(=O)c1sc2nc(-c3ccc(C)cc3)c(NCCOC)n2c1C
931 s | Cc1ccc(N2CCC(NC(=O)c3cccc(N(C)C)c3)C2=O)cc1 (stereo unspecified)
834 s | CCOC(=O)c1nc(NCc2ccccc2Cl)c2ccccc2n1
949 s | CC(C)N1Cc2cc(C(=O)N3CCC(Cc4ccccc4)CC3)sc2C1
662 s | Cc1cc(Br)ccc1-c1ccc(CNCCO)o1
739 s | Cc1cccc(N(C)C(=O)Cc2c(C(=O)O)c(C)cn2C)c1
877 s | CCOc1ccc(NC(=O)c2cc(C(C)C)n(C3CCS(=O)(=O)C3)n2)cc1 (stereo unspecified)
959 s | Cc1ccc(-n2c(N3CCCC(C(=O)NC(C)c4ccc(F)cc4)C3)nc3ccsc3c2=O)cc1 (stereo unspecified)
975 s | c1ccc(CNc2nc(-c3ccccc3)no2)cc1
